Experimental data as given in patent US7091033B2, “Array of toxicologically relevant canine genes and uses thereof” (Phase-1 Molecular Toxicology, Inc., priority 2000, dated 2006).
Read-outs that look alike come from different tables or passages of the source.

How the values were obtained:
Format in all cases: in vivo
[1] = test system: canine genes of the array; assay: Canine array fold induction of canine genes in liver of canines dosed with test agents (Table 11); details: dog, 0.3 mg/kg, gene = c0 of the row
Excerpt: (§1) Table 11 depicts the fold induction for canine genes in a canine array.

[2] = test system: canine genes of the array; assay: Canine array fold induction of canine genes in kidney of canines dosed with test agents (Table 11); details: dog, 0.3 mg/kg, 10 days, gene = c0 of the row
Excerpt: as §1

[3] = test system: canine genes in a canine array (Canine kidney); assay: Canine array fold induction of canine genes in kidney of dogs dosed with an agent (Table 11); details: canine kidney, 0.3 mg/kg, 10 days; for fold induction at 0.3 mg/kg: Canis lupus familiaris, 240 h
Excerpt: as §1

[4] = test system: Cytochrome P450 2C41 (gene expression); assay: as above; details: dog, kidney, 0.3 mg/kg, canine kidney, 10 days
Excerpt: as §1

[5] = test system: Cytochrome P450 2D (gene expression); assay: as above; details: dog, kidney, 0.3 mg/kg, canine kidney, 10 days
Excerpt: as §1

[6] = test system: Cytochrome P450 2B (gene expression); assay: as above; details: dog, kidney, 0.3 mg/kg, canine kidney, 10 days
Excerpt: as §1

fold induction at 10 days ([1]; 0.3 mg/kg, 10196, Canine Liver, 10 days): 1
fold induction at 10 days ([1]; 0.3 mg/kg, 10316, Canine liver, 10 day): 1.2
fold induction at 10 days ([2]; 0.3 mg/kg, 10087, canine kidney): 1.6
fold induction at 10 days ([2]; 0.3 mg/kg, 10089, canine kidney): 1
Alkaline phosphatase fold induction [3]: 1.6
Caveolin-2 fold induction [3]: 1.6
fold induction at 10 days [4]: 1.7
fold induction at 10 days [5]: 1.2
fold induction at 10 days [6]: 1.2
SMILES: C[C@]12CC[C@@H]3c4ccc(O)cc4CC[C@H]3[C@@H]1CC[C@@H]2O [Estradiol]
fold induction at 0.3 mg/kg ([3]; read-out: Alkaline phosphatase fold induction): 1.4
fold induction at 0.3 mg/kg ([3]; read-out: Angiopoietin-related protein 3 (ANGPTL3) fold induction): 1.1
fold induction at 0.3 mg/kg ([3]; read-out: BRCA1 fold induction): 1.1
fold induction at 0.3 mg/kg ([3]; read-out: Beta-glucuronidase fold induction): 1.3
fold induction at 0.3 mg/kg ([3]; read-out: CD40 ligand fold induction): 1.1
fold induction at 0.3 mg/kg ([3]; read-out: Catalase fold induction): 1.2
fold induction at 0.3 mg/kg ([3]; read-out: Caveolin-1 fold induction): 1.4
fold induction at 0.3 mg/kg ([3]; read-out: Caveolin-2 fold induction): 1.7
fold induction at 0.3 mg/kg ([3]; read-out: Cubilin fold induction): 1.1
fold induction at 0.3 mg/kg ([3]; read-out: Cytochrome c oxidase subunit VIIaL fold induction): 1
fold induction at 0.3 mg/kg ([3]; read-out: c-erb B-2 fold induction): 1.3
